As a reminder, the IC50 is the concentration that gives 50% inhibition. By Km is commonly meant the substrate concentration at which the rate is half of its maximum. The term Kd denotes the constant that tells how readily two partners part at equilibrium. Read a high Kd as a looser complex. As a reminder, the Ki is a measure of affinity in units of concentration, obtained from inhibition or displacement.

Here are results for 22 compounds from patent publication US8461128B2, “Anti-microbial agents and uses thereof” (priority 2005, dated 2013).

Molecules are shown by their SMILES. Values after ≈ are worked out from the molar mass of the structure shown. Values joined by “and” are separate entries in the source; they are usually repeats but may differ in a detail not shown here. Identical values can stand only once. Like-named read-outs stand apart in the source and are kept apart here.

The target of series [1] is T1, YbtE (Yersinia pestis, UniProt Q56950). The series can be described thus: biochemical. The format is biochemical.
T1 sequence (Q56950 1-525): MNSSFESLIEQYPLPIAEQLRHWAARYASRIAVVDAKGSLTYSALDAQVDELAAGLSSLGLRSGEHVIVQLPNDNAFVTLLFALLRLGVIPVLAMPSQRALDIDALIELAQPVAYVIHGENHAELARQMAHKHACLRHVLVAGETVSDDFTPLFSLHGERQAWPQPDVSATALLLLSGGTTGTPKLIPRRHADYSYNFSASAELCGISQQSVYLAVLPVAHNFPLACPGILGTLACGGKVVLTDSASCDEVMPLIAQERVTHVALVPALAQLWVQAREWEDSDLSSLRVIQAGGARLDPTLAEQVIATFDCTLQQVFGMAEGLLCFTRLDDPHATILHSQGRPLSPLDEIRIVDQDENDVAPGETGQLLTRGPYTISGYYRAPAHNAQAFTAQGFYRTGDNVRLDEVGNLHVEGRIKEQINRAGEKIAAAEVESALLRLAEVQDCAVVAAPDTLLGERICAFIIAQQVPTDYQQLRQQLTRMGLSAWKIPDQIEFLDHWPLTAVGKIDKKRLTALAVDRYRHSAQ
Series [2] has as its target T1, YbtE. The series can be described thus: biochemical.
In series [3] the target is T1, YbtE. Conditions: cited from earlier work.
For a further series, the system named is M. tuberculosis H37Rv. Kind of series: microbe, parasite or virus in culture. Type of series: cell-based, Mycobacterium tuberculosis.
Another series relates to Y. pestis KIM6-2082.1+. Kind of series: microbe, parasite or virus in culture. The format is cell-based, Yersinia pestis.
The subject of series [4] is MBT production in M. tuberculosis. The format is cell-based, Mycobacterium tuberculosis.
A short description of series [5]: Isotopic stability in D2O (NMR). The format is physicochemical. Conditions: room temperature.
The test system of the next series is 92 Y. pestis strains. Particulars: cited from earlier work.
The subject of series [6] is M. tuberculosis H37Rv reference strain. Particulars: Wanger et al. 1996; cited from earlier work.
Setting [7] is: Mycobacterium tuberculosis, H37RV.

With `Cc1cccc(O)c1C(=O)NS(=O)(=O)OC[C@H]1O[C@@H](n2cnc3c(N)ncnc32)[C@H](O)[C@@H]1O` [6-methylsalicyl-AMS], on YbtE [1] (IC50), it took 0.023 µM to reach half-maximal inhibition (IC50).

Turning to `O=C(O)c1ccccc1O` [salicylate], the Km on YbtE [2] (read-out: Km salicylate) is 5.4 µM; at YbtE [3] (read-out: Km salicylate), 4.6 µM.

Regarding `Nc1ncnc2c1ncn2[C@@H]1O[C@H](COS(N)(=O)=O)[C@@H](O)[C@H]1O` [AMS, 5′-O-Sulfamoyladenosine, reference compound], the inhibition of adenylation result at YbtE [2] is “did not inhibit adenylation”. On YbtE [1], the inhibition of salicylation entry was “did not inhibit salicylation”. In addition, the IC50 in the series on M. tuberculosis H37Rv is 39 µM and 43 µM and 55 µM. Moreover, in the series on M. tuberculosis H37Rv (setting [7]), inhibition was half-maximal at 35 µM (IC50) and the MIC90 was roughly 100 µM (≈ 34.6 µg/mL).

Compound `CC(=O)O[C@@H]1[C@H](OC(C)=O)[C@@H](COS(=O)(=O)NC(=O)c2ccccc2O)O[C@H]1n1cnc2c(N)ncnc21` [2′,3′-diacetyl-salicyl-AMS] returned an MIC90 in the series on M. tuberculosis H37Rv (setting [7]) greater than 200 µM.

For the compound `Nc1ncnc2c1nc1n2[C@@H]2O[C@H](COS(=O)(=O)NC(=O)CCCCC1)[C@@H](O)[C@H]2O` [cyclo-hexanoyl-AMS], the IC50 against YbtE [1] (IC50) was greater than 40 µM.

`Nc1ncnc2c1ncn2[C@@H]1O[C@H](COS(=O)(=O)NC(=O)c2ccccc2)[C@@H](O)[C@H]1O` [benzoyl-AMS]: the concentration for half-maximal inhibition (IC50) against YbtE [1] (IC50) is 0.004 µM and 0.012 µM; in the series on Y. pestis KIM6-2082.1+, 500 µM; in the series on M. tuberculosis H37Rv it was 105 µM and 133 µM. Further, the MIC90 was greater than 500 µM in the series with Y. pestis KIM6-2082.1+ (Yersinia pestis) and greater than 200 µM against M. tuberculosis H37Rv (setting [7]).

Consider `Nc1ncnc2c1ncn2[C@@H]1O[C@H](COP(=O)(O)OP(=O)(O)OP(=O)(O)O)[C@@H](O)[C@H]1O` [ATP], for which the Km was 172 µM on YbtE [2] (read-out: Km ATP) and 350 µM on YbtE [3] (read-out: Km ATP).

`Nc1ccc(C(=O)O)c(O)c1` [p-aminosalicylic acid, reference compound]: in the series with M. tuberculosis H37Rv, the midpoint of inhibition, the IC50, lay at 0.08 µM and the iron-deficient media selectivity entry is on record as “do not exhibit iron-deficient media selectivity”. Besides, in the series on M. tuberculosis H37Rv (setting [7]), the midpoint of inhibition, the IC50, lay at 0.09 µM and the MIC90 was determined as 0.78 µM (≈ 0.119 µg/mL).

Consider `O=C(NS(=O)(=O)OC[C@H]1O[C@@H](n2ccc3ccccc32)[C@H](O)[C@@H]1O)c1ccccc1O` [salicyl-IRMS, β-indolyl 5′-O—(N-salicylsulfamoyl)ribose], for which the IC50 is 0.021 µM at YbtE [1] (IC50), greater than 500 µM in the series on Y. pestis KIM6-2082.1+ (Yersinia pestis) and greater than 200 µM with M. tuberculosis H37Rv (setting [7]). The MIC90 against Y. pestis KIM6-2082.1+ (Yersinia pestis) is greater than 500 µM; in the series with M. tuberculosis H37Rv (setting [7]), greater than 200 µM.

In the case of `Nc1ncnc2c1ncn2[C@H]1C[C@H](O)[C@@H](COS(=O)(=O)NC(=O)c2ccccc2O)O1` [salicyl-dAMS], the IC50 on YbtE [1] (IC50) was 0.008 µM and 0.014 µM.

Regarding `Nc1ncnc2c1ncn2[C@@H]1O[C@H](COS(=O)(=O)NC(=O)c2ccccc2O)[C@@H](O)[C@H]1O` [salicyl-AMS, 5′-O—[N-(salicyl)sulfamoyl]-adenosine], the IC50 on YbtE [2] was 0.01 to 0.015 µM; at YbtE [2] (read-out: IC50, inhibition of adenylation activity), 0.0147 ± 0.002 µM; against YbtE [1] (IC50), 0.0145 µM and 0.009 µM; at YbtE [1] (read-out: IC50), 0.0479 µM; in the series with Y. pestis KIM6-2082.1+ (Yersinia pestis, read-out: IC50, bacterial growth in iron-limiting media), 25 to 52 µM; with Y. pestis KIM6-2082.1+ (Yersinia pestis, read-out: IC50, growth inhibition), roughly 50 µM. The IC50 in the series on Y. pestis KIM6-2082.1+ (read-out: IC50, growth inhibition) was determined as 51.2 ± 4.7 µM. Moreover, the Kd at YbtE [2] was no more than 0.001 µM. For the same compound, the Ki was determined as 0.00035 ± 0.00027 µM at YbtE [2] and 0.00108 ± 0.00098 µM at YbtE [2] (read-out: Ki (non-competitive with respect to salicylate)). The “slope of IC50 versus YbtE concentration” value on YbtE [2] amounted to 0.43. Also, the “slope of IC50 versus YbtE concentration, corrected” value at YbtE [2] turned out to be 0.52. The MBT production result in [4] is given as “virtually undetectable”. The activity on growth result with Y. pestis KIM6-2082.1+ is given as “not active”. For the same compound, the MIC turned out to be 96.7 µM (≈ 45.1 µg/mL) with Y. pestis KIM6-2082.1+ (Yersinia pestis, read-out: MIC95, growth inhibition) and 268 µM (≈ 125 µg/mL) with M. tuberculosis H37Rv (Mycobacterium tuberculosis, H37RV, read-out: MIC95, growth inhibition). In addition, the “increase of IC50, iron-supplemented vs iron-deficient” value with M. tuberculosis H37Rv worked out at 18 fold. Moreover, the “isotopically stable in D2O” value in [5] is given as no less than 54 days.

Turning to `NNC(=O)c1ccncc1` [isoniazid, reference compound], in the series with M. tuberculosis H37Rv, the 50% inhibitory concentration (IC50) is 0.11 µM and 0.08 µM and 0.1 µM; the MIC90 is 0.16 µM (≈ 0.0219 µg/mL). Further, in the series with M. tuberculosis H37Rv (setting [7]), 0.12 µM corresponded to half-maximal inhibition (IC50) and the MIC90 came to 0.2 µM (≈ 0.0274 µg/mL).

Regarding `CC(=O)O[C@@H]1[C@H](OC(C)=O)[C@@H](COS(=O)(=O)NC(=O)c2ccccc2O)O[C@H]1n1ccc2ccccc21` [2′,3′-diacetylsalicyl-IRMS], the figures for the IC50 on YbtE [1] (IC50), in the series on Y. pestis KIM6-2082.1+ (Yersinia pestis) and in the series on M. tuberculosis H37Rv (setting [7]) were 3.9 µM, greater than 200 µM and greater than 200 µM, respectively. Further, the MIC90 in the series on Y. pestis KIM6-2082.1+ (Yersinia pestis) and in the series on M. tuberculosis H37Rv (setting [7]) was greater than 200 µM each time.

With `Nc1ncnc2c1ncn2[C@@H]1O[C@H](COS(=O)(=O)NC(=O)c2ccc(O)cc2)[C@@H](O)[C@H]1O` [4-hydroxybenzoyl-AMS], the IC50 is > 0.08 µM and 6 µM on YbtE [1] (IC50); 110 µM with M. tuberculosis H37Rv; greater than 200 µM in the series with M. tuberculosis H37Rv (setting [7]). The compound also registered an MIC90 against M. tuberculosis H37Rv (setting [7]) greater than 200 µM.

On to `CC(=O)Oc1ccccc1C(=O)NS(=O)(=O)OC[C@H]1O[C@@H](n2ccc3ccccc32)[C@H](OC(C)=O)[C@@H]1OC(C)=O` [2′,2″,3′-triacetylsalicyl-IRMS], for which the half-inhibitory concentration (IC50) was 1.8 µM at YbtE [1] (IC50); 25 µM and 22 µM and 33 µM and 31 µM and 35 µM in the series on M. tuberculosis H37Rv; 24 µM with M. tuberculosis H37Rv (setting [7]). Also, the results for the MIC90 with Y. pestis KIM6-2082.1+ (Yersinia pestis) and against M. tuberculosis H37Rv (setting [7]) were roughly 500 µM (≈ 287 µg/mL) and roughly 50 µM (≈ 28.7 µg/mL), respectively.

Take `CC(OS(=O)(=O)NC(=O)c1ccccc1O)[C@H]1O[C@@H](n2cnc3c(N)ncnc32)[C@H](O)[C@@H]1O` (mixture of isomers) [(RS)-5′-methyl-salicyl-AMS]: the IC50 on YbtE [1] (IC50) amounted to 0.009 µM.

In the case of `[H]/N=C(/N)N[C@H]1[C@H](O)[C@@H](O)[C@H](O[C@@H]2O[C@@H](C)[C@](O)(C=O)[C@H]2O[C@@H]2O[C@@H](CO)[C@H](O)[C@@H](O)[C@@H]2NC)[C@@H](N/C(N)=N\[H])[C@@H]1O` [streptomycin], the MIC is 2.6 to 6.9 µM in the series with 92 Y. pestis strains and 0.4 to 1.7 µM in series [6].

Consider `Nc1ncnc2c1nc1n2[C@@H]2O[C@H](COS(=O)(=O)NC(=O)CCCC#C1)[C@@H](O)[C@H]2O` [cyclo-hexynoyl-AMS], for which the IC50 at YbtE [1] (IC50) is greater than 40 µM.

`NS(=O)(=O)OC[C@H]1O[C@@H](n2ccc3ccccc32)[C@H](O)[C@@H]1O` [IRMS]: the IC50 against YbtE [1] (IC50) was greater than 20 µM; in the series with M. tuberculosis H37Rv (setting [7]), greater than 200 µM. Moreover, the MIC90 in the series with M. tuberculosis H37Rv (setting [7]) is greater than 200 µM.

Turning to `CC(=O)NS(=O)(=O)OC[C@H]1O[C@@H](n2cnc3c(N)ncnc32)[C@H](O)[C@@H]1O` [acetyl-AMS], at YbtE [1] (IC50), the IC50 was greater than 400 µM.

For the compound `COc1ccccc1C(=O)NS(=O)(=O)OC[C@H]1O[C@@H](n2cnc3c(N)ncnc32)[C@H](O)[C@@H]1O` [2-methoxybenzoyl-AMS], on YbtE [1] (IC50), the IC50 is > 0.08 µM and 0.065 µM. In the series with M. tuberculosis H37Rv (setting [7]), this compound had an IC50 greater than 200 µM and an MIC90 greater than 200 µM.

As to `Nc1ncnc2c1ncn2[C@H]1CC[C@@H](COS(=O)(=O)NC(=O)c2ccccc2O)O1` [salicyl-ddAMS], the MIC90 with M. tuberculosis H37Rv (setting [7]) is roughly 200 µM (≈ 86.9 µg/mL).
